The values below come from EPA's ToxValDB 9.5 (doi:10.2903/j.efsa.2014.3524).

One data set deals with Bird. Particulars: oral, mortality; for LD50: acute, unspecified; for LC50: short-term, feed.
In a further data set the test system is Rattus norvegicus. Particulars: acute; oral; mortality.

Each structure is given as a SMILES string.

In the data set with Bird, `CCCC/C=C/CC/C=C\CCCCCCOC(C)=O` [Hexadeca-7,11-dien-1-yl acetate (Z,E)-] returned an LD50 of more than 2250 mg/kg and an LC50 of more than 5620 mg/kg. For the same compound, the LD50 in the data set on Rattus norvegicus is more than 5000 mg/kg. Consider `CCC=CC=CCCCCCCOC(C)=O` (stereo in doubt) [(7Z,9E)-Dodeca-7,9-dienyl acetate], for which the LD50 in the data set with Rattus norvegicus was more than 5000 mg/kg.

For the compound `CC/C=C\CCCCCCCCCCOC(C)=O` [(Z)-Tetradec-11-enyl acetate], in the data set with Rattus norvegicus, the LD50 was more than 5000 mg/kg.

`CCCC/C=C\CCCCCCCCOC(C)=O` [(Z)-9-Tetradecenyl acetate] came in with an LD50 in the data set on Rattus norvegicus of more than 5000 mg/kg. For `CCCC/C=C\CCCCCCCCCC=O` [(Z)-11-Hexadecenal], the LD50 in the data set with Bird was more than 2250 mg/kg; in the data set with Rattus norvegicus, more than 5000 mg/kg. The compound also registered an LC50 with Bird of more than 5620 mg/kg. As to `CC/C=C\CCCCCCCCOC(C)=O` [(Z)-Dodec-9-enyl acetate], in the data set with Rattus norvegicus, the LD50 was more than 5000 mg/kg.

Consider `C/C=C/C=C/CCCCCCCO` [(8E,10E)-8,10-Dodecadien-1-ol], for which the LD50 in the data set with Bird is more than 2050 mg/kg; with Rattus norvegicus, more than 5000 mg/kg. As for `CCC/C=C/CCCCCCCOC(C)=O` [(E)-Dodec-8-enyl acetate], the LD50 in the data set with Rattus norvegicus was more than 5000 mg/kg.
